Assay results reported in US20100125059A1, “1-BIARYLAZETIDINONE DERIVATIVE” (Teijin Pharma Limited, priority 2007, published 2010).
Where two headings read alike, the source gives them in different places.

How the values were obtained:
Caco-2 cells = assay: Cholesterol absorption inhibition assay (in vitro), [14C] cholesterol mixed micelles; format: cell-based; conditions: Homo sapiens, 24 hours, read-out: cholesterol absorption inhibitory activity; for inhibition at 10 µM: concentration of 10 μM; for inhibition at 12.5 µM: concentration of 12.5 μM
Method: This assay measures cholesterol absorption inhibitory activity by adding mixed micelles containing [^14C] cholesterol to cells and measuring cholesterol taken in the cells as oleic acid cholesteryl ester. The assay is conducted after Caco-2 cells are seeded on multi-well plates and cultured (culture medium: DMEM containing 10% fetal bovine serum, 1% non-essential amino acids, 1% penicillin, and 1% streptomycin) for 2 weeks. To each well, the micelle solution (in an amount required to provide the following final concentrations: 600 μM of sodium oleate, 50 μM of phosphatidyl choline, 5 mM of sodium taurocholate, 2.5 μM of cholesterol, and 2.5 μM of [^14C] cholesterol) and a test compound solution (in an amount required to provide the final concentration of 0.5 to 25 μM) or a solvent as a control are added, and incubation is started at 37° C. 24 hours later, the culture medium is removed, and the lipid component is extracted with hexane/2-propanol (3:2, v/v) and applied onto thin-layer silica gel plates. After drying, each plate is eluted with a mixture of hexane, diethyl ether, and acetic acid in a ratio of 83:16:1. The plates are photoexposed on imaging plates and analyzed using BAS-2500 (FUJIFILM). The amounts of light exposure of the areas corresponding to the cholesteryl ester are calculated. Background is measured using a blank space of the plate. Inhibition rates are calculated using values obtained by subtracting the background values from both values of the control and the test sample, respectively, in accordance with the following equation. A test value is calculated as a percentage (%) with respect to the control.
In the Equation 1, A is the control group, BG is a background, and B is the test compound.
The following results were obtained from the measurement by this method on cholesterol absorption inhibitory activity of the compounds of the present invention. The following results were obtained by the evaluation using concentrations of 10 μM and/or 12.5 μM.

[1] = system: hamsters fed a high cholesterol diet; assay: Measurement of lipid lowering effect in hamsters fed a high cholesterol diet; format: in vivo, Male Golden Syrian hamsters; conditions: Mesocricetus auratus, po, 168 h, gavage once daily, 7 days
Method: Male Golden Syrian hamsters are divided into groups each consisting of 6 animals and fed a controlled high cholesterol diet (CE-2 containing 0.5% cholesterol; CLEA Japan, Inc.) for 28 days at most. From the start of feeding of the high cholesterol diet, the test compounds are administered by gavage once daily. For the administration, 0.2 mL of corn oil alone per 100 g (control group) or a solution (or suspension) of the test compound in corn oil at a dose of 0.01 to 10 mg/kg was given. At the same time, a group fed with a normal diet during the same study period is handled as a normal group. 4 hours after the last administration, whole blood is collected from the abdominal aorta under light anesthesia with ether and serum is separated from the blood. Further, livers are harvested, wet liver weights are measured, and part (about 0.5 g) of the harvested livers are extracted and weighed. 2-propanol in an amount 4 times the weight of the extracted livers are added, the resulted mixtures are homogenized, and the centrifuged supernatant are recovered and used as liver-derived samples.
Serum and liver TC concentrations are determined by an enzyme method using L-type Wako CHO•H (Wako Pure Chemical Industries Ltd.) or Cholestest CHO (Daiichi Pure Chemicals Co., Ltd.). Serum TG concentrations are determined by an enzyme method using L-type Wako TG•H (Wako Pure Chemical Industries Ltd.) or Autosera S TG-N (Daiichi Pure Chemicals Co., Ltd.) and a free glycerine elimination method. LDL-C concentrations are determined by a direct method using L-type Wako LDL-C•M (Wako Pure Chemical Industries Ltd.) or Cholestest LDL (Daiichi Pure Chemicals Co., Ltd.). Human serum was commonly used as a sample for the calibration curve for determinations of serum and liver TC concentrations, serum TG concentration, and serum LDL-C concentration. The effect of the test compound is shown by a suppression rate (%) of an increase in serum TC concentration due to feeding of the high cholesterol diet, a serum TG lowering rate (%), a suppression rate (%) of an increase in serum LDL-C concentration due to feeding of the high cholesterol diet, and a suppression rate (%) of an increase in liver TC concentration due to feeding of the high cholesterol diet calculated in accordance with the following equations.
In the Equation 2, A is the control group, B is the test compound group, and C is the normal group.
In the Equation 3, A is the control group, B is the test compound group, and C is the normal group.
In the Equation 4, A is the control group, B is the test compound group, and C is the normal group.
In the Equation 5, A is the control group, and B is the test compound group.
The following results were obtained from the study by this method on the effects of lowering serum TC, LDL-C, and TG, and liver TC in the hamsters fed with a high cholesterol diet which were given the test compounds for 7 days.
The compounds in which pyridyl of compound of example 51 and 55 was exchanged for phenyl, were used as comparative compound 1 and 2, respectively. In the same method as Example 112, the suppression rate (%) of an increase in serum TC concentration of comparative compound 1 and 2 were calculated.

[2] = read-out: serum LDL-C lowering effect (suppression rate of an increase in serum LDL-C concentration)
[3] = read-out: serum TC lowering effect (suppression rate of an increase in serum TC concentration)
[4] = read-out: liver TC lowering effect (suppression rate of an increase in liver TC concentration)
[5] = read-out: serum TG lowering effect (serum TG lowering rate)

| SMILES | inhibition at 10 µM (Caco-2 cells) [%] | inhibition in vivo at 0.01 mg/kg [1, 3] [%] | further results |
| --- | --- | --- | --- |
| COc1ncccc1-c1ccc(N2C(=O)[C@H](SC[C@H](O)c3ccc(Cl)cc3)[C@H]2c2ccc(O)cc2)cc1 [Example 57, (3R,4R)-3-[(2R)-2-(4-chlorophenyl)-2-hydroxyethylthio]-4-(4-hydroxyphenyl)-1-[4-(2-methoxypyridin-3-yl)phenyl]azetidin-2-one] | ≥ 50 |  | inhibition at 12.5 µM (Caco-2 cells): ≥ 60% |
| O=C1[C@H](SC[C@H](O)c2ccc(F)cc2)[C@@H](c2ccc(O)cc2)N1c1ccc(-c2cccc3[nH]ccc23)cc1 [Example 13, (3R,4R)-3-[(2R)-2-(4-fluorophenyl)-2-hydroxyethylthio]-4-(4-hydroxyphenyl)-1-[4-(indol-4-yl)phenyl]azetidin-2-one] | ≥ 50 |  |  |
| O=C1[C@H](SC[C@H](O)c2ccc3c(c2)OCCO3)[C@@H](c2ccc(O)cc2)N1c1ccc(-c2cccnc2)cc1 [Example 29, (3R,4R)-3-[(2R)-2-(2H,3H-benzo[3,4-e]1,4-dioxin-6-yl)-2-hydroxyethylthio]-4-(4-hydroxyphenyl)-1-[4-(pyridin-3-yl)phenyl]azetidin-2-one] | ≥ 50 |  |  |
| COc1ccc(CS[C@H]2C(=O)N(c3ccc(-c4cccnc4)cc3)[C@@H]2c2ccc(O)cc2)cc1 [Example 19, (3R,4R)-4-(4-hydroxyphenyl)-3-[(4-methoxyphenyl)methylthio]-1-[4-(pyridin-3-yl)phenyl]azetidin-2-one] | ≥ 50 |  |  |
| O=C1[C@H](SC[C@H](O)c2ccc(F)cc2)[C@@H](c2ccc(O)cc2)N1c1ccc(-c2ccncc2)cc1 [Example 11, (3R,4R)-3-[(2R)-2-(4-fluorophenyl)-2-hydroxyethylthio]-4-(4-hydroxyphenyl)-1-[4-(pyridin-4-yl)phenyl]azetidin-2-one] | ≥ 50 |  |  |
| O=C1[C@H](SCCc2ccccc2)[C@@H](c2ccc(O)cc2)N1c1ccc(-c2cccnc2)cc1 [Example 4, (3R,4R)-4-(4-hydroxyphenyl)-3-(2-phenylethylthio)-1-[4-(pyridin-3-yl)phenyl]azetidin-2-one] | ≥ 50 |  | inhibition at 12.5 µM (Caco-2 cells): ≥ 60% |
| Cc1ncccc1-c1ccc(N2C(=O)[C@H](SC[C@H](O)c3ccc(F)cc3)[C@H]2c2ccc(O)cc2)cc1 [Example 54, (3R,4R)-3-[(2R)-2-(4-fluorophenyl)-2-hydroxyethylthio]-4-(4-hydroxyphenyl)-1-[4-(2-methylpyridin-3-yl)phenyl]azetidin-2-one] | ≥ 50 |  |  |
| CN(C)c1ccc(-c2ccc(N3C(=O)[C@H](SC[C@H](O)c4ccc(Cl)cc4)[C@H]3c3ccc(O)cc3)cc2)cn1 [Example 88, (3R,4R)-3-[(2R)-2-(4-chlorophenyl)-2-hydroxyethylthio]-1-[4-(6-dimethylaminopyridin-3-yl)phenyl]-4-(4-hydroxyphenyl)azetidin-2-one] |  |  | inhibition at 12.5 µM (Caco-2 cells): ≥ 60% |
| O=C1[C@H](SC[C@H](O)c2ccc(C(F)(F)F)cc2)[C@@H](c2ccc(O)cc2)N1c1ccc(-c2cccnc2)cc1 [Example 43, (3R,4R)-3-{(2R)-2-hydroxy-2-[4-(trifluoromethyl)phenyl]ethylthio}-4-(4-hydroxyphenyl)-1-[4-(pyridin-3-yl)phenyl]azetidin-2-one] | ≥ 50 |  |  |
| COc1cnccc1-c1ccc(N2C(=O)[C@H](SC[C@H](O)c3ccc(F)cc3)[C@H]2c2ccc(O)cc2)cc1 [Example 23, (3R,4R)-3-[(2R)-2-(4-fluorophenyl)-2-hydroxyethylthio]-4-(4-hydroxyphenyl)-1-[4-(3-methoxypyridin-4-yl)phenyl]azetidin-2-one] | ≥ 50 |  |  |
| O=C1[C@H](SC[C@H](O)c2ccc(Cl)cc2)[C@@H](c2ccc(O)cc2)N1c1ccc(-c2cncc(F)c2)cc1 [Example 70, (3R,4R)-3-[(2R)-2-(4-chlorophenyl)-2-hydroxyethylthio]-1-[4-(5-fluoropyridin-3-yl)phenyl]-4-(4-hydroxyphenyl)azetidin-2-one] |  | ≥ 30 | inhibition in vivo at 0.01 mg/kg [1, 2]: ≥ 30%; inhibition in vivo at 0.1 mg/kg [1, 4]: ≥ 50% |
| N#Cc1cncc(-c2ccc(N3C(=O)[C@H](SC[C@H](O)c4ccc(F)cc4)[C@H]3c3ccc(O)cc3)cc2)c1 [Example 18, 5-(4-{(3R,4R)-3-[(2R)-2-(4-fluorophenyl)-2-hydroxyethylthio]-4-(4-hydroxyphenyl)-2-oxoazetidinyl}phenyl)pyridine-3-carbonitrile] |  | ≥ 30 | inhibition in vivo at 0.1 mg/kg [1, 2]: ≥ 50%; inhibition in vivo at 0.1 mg/kg [1, 5]: ≥ 20% |
| N#Cc1cncc(-c2ccc(N3C(=O)[C@H](SC[C@H](O)c4ccc(F)cc4)[C@H]3c3ccc(O)cc3O)cc2)c1 [Example 63, 5-(4-{(3R,4R)-3-[(2R)-2-(4-fluorophenyl)-2-hydroxyethylthio]-4-(2,4-dihydroxyphenyl)-2-oxoazetidinyl}phenyl)pyridine-3-carbonitrile] |  | ≥ 30 | inhibition in vivo at 0.01 mg/kg [1, 4]: ≥ 30%; inhibition in vivo at 0.01 mg/kg [1, 2]: ≥ 30%; inhibition in vivo at 0.1 mg/kg [1, 2]: ≥ 50%; inhibition in vivo at 0.1 mg/kg [1, 3]: ≥ 50% |
| O=C1[C@H](SC[C@H](O)c2ccc(Cl)cc2)[C@@H](c2ccc(O)cc2)N1c1ccc(-c2cnccn2)cc1 [Example 104, (3R,4R)-3-[(2R)-2-(4-chlorophenyl)-2-hydroxyethylthio]-4-(4-hydroxyphenyl)-1-[4-(pyrazin-2-yl)phenyl]azetidin-2-one] |  | ≥ 30 | inhibition in vivo at 0.01 mg/kg [1, 2]: ≥ 30%; inhibition in vivo at 0.1 mg/kg [1, 4]: ≥ 50% |
| O=C1[C@H](SC[C@H](O)c2ccc(F)cc2)[C@@H](c2ccc(O)cc2O)N1c1ccc(-c2cncc(C(F)(F)F)c2)cc1 [Example 76, (3R,4R)-3-[(2R)-2-(4-fluorophenyl)-2-hydroxyethylthio]-4-(2,4-dihydroxyphenyl)-1-[4-(5-trifluoromethylpyridin-3-yl)phenyl]azetidin-2-one] |  | ≥ 30 |  |
| O=C1[C@H](SC[C@H](O)c2ccc(Cl)s2)[C@@H](c2ccc(O)cc2)N1c1ccc(-c2cccnc2)cc1 [Example 46, (3R,4R)-3-[(2S)-2-(5-chlorothiophen-2-yl)-2-hydroxyethylthio]-4-(4-hydroxyphenyl)-1-[4-(pyridin-3-yl)phenyl]azetidin-2-one] |  |  | inhibition in vivo at 0.1 mg/kg [1, 5]: ≥ 20% |
